In ChEMBL document CHEMBL1133531, “Carbonic anhydrase inhibitors: perfluoroalkyl/aryl-substituted derivatives of aromatic/heterocyclic sulfonamides as topical intraocular pressure-lowering agents with prolonged duration of action” (J Med Chem, 2000):
≈ marks a conversion by molar mass, not a printed value.

Key:
Carbonic anhydrase 1 [1] = biological target: T1, Carbonic anhydrase 1 (Homo sapiens, UniProt P00915)
Description: Inhibition of human recombinant carbonic anhydrase I (CA1)

Carbonic anhydrase 4 = biological target: T2, Carbonic anhydrase 4 (Bos taurus, UniProt Q95323)
T2 sequence (Q95323 whole entry): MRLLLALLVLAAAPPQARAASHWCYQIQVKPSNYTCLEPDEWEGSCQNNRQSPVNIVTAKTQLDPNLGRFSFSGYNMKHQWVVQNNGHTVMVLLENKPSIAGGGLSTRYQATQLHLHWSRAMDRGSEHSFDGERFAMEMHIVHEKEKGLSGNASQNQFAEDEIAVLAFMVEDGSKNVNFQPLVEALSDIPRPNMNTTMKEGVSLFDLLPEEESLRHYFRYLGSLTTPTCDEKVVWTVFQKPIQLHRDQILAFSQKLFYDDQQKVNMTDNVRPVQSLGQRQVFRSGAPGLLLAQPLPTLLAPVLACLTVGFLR
Description: Inhibition of bovine carbonic anhydrase IV (CA4) from bovine lung microsomes

Oryctolagus cuniculus [2] = species on record: Oryctolagus cuniculus
Description: Tested for in vivo IOP-lowering of normotensive albino rabbits after topical administration at the specified interval (30 min) at pH 7

Oryctolagus cuniculus [3] = species on record: Oryctolagus cuniculus; remark: listed apart in the source
Description: Tested for in vivo IOP-lowering of normotensive albino rabbits after topical administration at the specified interval (60 min) at pH 7

Oryctolagus cuniculus [4] = species on record: Oryctolagus cuniculus; remark: listed apart in the source
Description: Tested for in vivo IOP-lowering of normotensive albino rabbits after topical administration at the specified interval (90 min) at pH 7

Carbonic anhydrase 1 [5] = biological target: T1, Carbonic anhydrase 1; experiment: Tested for inhibition of human (cloned) isozyme Carbonic anhydrase I
[6] = Partition coefficient (logD) (chloroform-buffer); type: physicochemical
Oryctolagus cuniculus [7] = species on record: Oryctolagus cuniculus; remark: listed apart in the source
Description: Tested for in vivo IOP-lowering of normotensive albino rabbits after topical administration at the specified interval (30 min) at pH 6.5

Oryctolagus cuniculus [8] = species on record: Oryctolagus cuniculus; remark: listed apart in the source
Description: Tested for in vivo IOP-lowering of normotensive albino rabbits after topical administration at the specified interval (60 min) at pH 6.5

Oryctolagus cuniculus [9] = species on record: Oryctolagus cuniculus; remark: listed apart in the source
Description: Tested for in vivo IOP-lowering of normotensive albino rabbits after topical administration at the specified interval (90 min) at pH 6.5

Oryctolagus cuniculus [10] = species on record: Oryctolagus cuniculus; remark: listed apart in the source
Description: In vitro transcorneal accession rate in rabbit corneal denuded epithelium

Oryctolagus cuniculus [11] = species on record: Oryctolagus cuniculus; remark: listed apart in the source
Description: In vitro transcorneal accession rate in rabbit corneal intact epithelium

physchem = details: pH 7.4 buffer
Description: Tested for solubility in pH 7.4 buffer, at 25 Degree C

Carbonic anhydrase 1 [12] = biological target: T1, Carbonic anhydrase 1; experiment: Tested for inhibition of human (cloned) isoenzyme carbonic anhydrase 1.
[13] = Solubility in pH 7.4 Buffer, at 25 Degree C; type: physicochemical
[14] = octanol/water
Description: Partition coefficient (logD) (chloroform/buffer)

Oryctolagus cuniculus [15] = species on record: Oryctolagus cuniculus; remark: listed apart in the source
Description: Tested for ex vivo distribution in aqueous humor after topical administration in albino rabbits (Ocular tissue concentration after 1 hr)

Oryctolagus cuniculus [16] = species on record: Oryctolagus cuniculus; remark: listed apart in the source
Description: Tested for ex vivo distribution in aqueous humor after topical administration in albino rabbits (Ocular tissue concentration after 2 hr)

Oryctolagus cuniculus [17] = species on record: Oryctolagus cuniculus; remark: listed apart in the source
Description: Tested for ex vivo distribution in ciliary process after topical administration in albino rabbits (Ocular tissue concentration after 1 hr)

Oryctolagus cuniculus [18] = species on record: Oryctolagus cuniculus; remark: listed apart in the source
Description: Tested for ex vivo distribution in ciliary process after topical administration in albino rabbits (Ocular tissue concentration after 2 hr)

Oryctolagus cuniculus [19] = species on record: Oryctolagus cuniculus; remark: listed apart in the source
Description: Tested for ex vivo distribution in cornea after topical administration in albino rabbits (Ocular tissue concentration after 1 hr)

Oryctolagus cuniculus [20] = species on record: Oryctolagus cuniculus; remark: listed apart in the source
Description: Tested for ex vivo distribution in cornea after topical administration in albino rabbits (Ocular tissue concentration after 2 hr)

Oryctolagus cuniculus [21] = experiment: Tested for in vivo IOP-lowering of glaucomatous rabbits after topical administration at the specified interval( 90 min) at pH 6.5; type: functional
Oryctolagus cuniculus [22] = experiment: Tested for in vivo IOP-lowering of glaucomatous rabbits after topical administration at the specified interval( 30 min) at pH 6.5; type: functional
Oryctolagus cuniculus [23] = experiment: Tested for in vivo IOP-lowering of glaucomatous rabbits after topical administration at the specified interval( 60 min) at pH 6.5; type: functional
Carbonic anhydrase 1 [24] = biological target: T1, Carbonic anhydrase 1; experiment: 99 Tested for inhibition of human (cloned) isozyme Carbonic anhydrase I

T1 sequence (P00915 whole entry): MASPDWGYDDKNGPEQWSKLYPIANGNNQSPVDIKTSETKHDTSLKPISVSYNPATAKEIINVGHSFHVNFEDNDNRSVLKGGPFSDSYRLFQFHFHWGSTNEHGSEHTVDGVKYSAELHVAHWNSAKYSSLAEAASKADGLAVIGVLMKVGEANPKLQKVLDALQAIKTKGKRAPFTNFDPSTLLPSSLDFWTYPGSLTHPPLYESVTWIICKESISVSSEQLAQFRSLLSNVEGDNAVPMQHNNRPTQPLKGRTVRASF

Row | Ki (Carbonic anhydrase 1 [1]) | Ki (Carbonic anhydrase 4) | SMILES | Kin (Oryctolagus cuniculus [10]) | Kin (Oryctolagus cuniculus [11]) | also measured
1 | 0.2 µM | 0.009 µM | NS(=O)(=O)c1nnc(NC(=O)CCNS(=O)(=O)c2c(F)c(F)c(F)c(F)c2F)s1 | – | – | Delta IOP (Oryctolagus cuniculus [2]): 4 mmHg; Delta IOP (Oryctolagus cuniculus [3]): 7.5 mmHg; Delta IOP (Oryctolagus cuniculus [4]): 6.1 mmHg
2 | – | 0.81 µM | NS(=O)(=O)c1ccccc1NC(=O)c1c(F)c(F)c(F)c(F)c1F | – | – | Ki (Carbonic anhydrase 1 [5]): 1.56 µM
3 | – | 0.65 µM | NS(=O)(=O)c1cccc(NC(=O)c2c(F)c(F)c(F)c(F)c2F)c1 | – | – | Ki (Carbonic anhydrase 1 [5]): 1.4 µM
4 | – | 0.86 µM | NS(=O)(=O)c1ccc(NNS(=O)(=O)C(F)(F)C(F)(F)C(F)(F)C(F)(F)C(F)(F)C(F)(F)C(F)(F)C(F)(F)F)cc1 | – | – | Ki (Carbonic anhydrase 1 [12]): 1.68 µM
5 | 0.21 µM | 0.006 µM | NS(=O)(=O)c1nnc(NS(=O)(=O)c2c(F)c(F)c(F)c(F)c2F)s1 | 8700 h⁻¹ | 4500 h⁻¹ | solubility [13]: 62 mM (≈ 25.4 mg/mL); logD [14]: 2.113; Drug concentration (Oryctolagus cuniculus [15]): 324 µM; Drug concentration (Oryctolagus cuniculus [16]): 42 µM; Drug concentration (Oryctolagus cuniculus [17]): 45 µM; Drug concentration (Oryctolagus cuniculus [18]): 12.5 µM; Drug concentration (Oryctolagus cuniculus [19]): 176 µM; Drug concentration (Oryctolagus cuniculus [20]): 69 µM
6 | 0.6 µM | 0.013 µM | NS(=O)(=O)c1nnc(NS(=O)(=O)c2ccc(NC(=O)C(F)(F)C(F)(F)C(F)(F)C(F)(F)C(F)(F)C(F)(F)C(F)(F)C(F)(F)F)cc2)s1 | 8 h⁻¹ | 3.2 h⁻¹ | logD [6]: 1.436
7 | 0.25 µM | 0.009 µM | Cn1nc(S(N)(=O)=O)sc1=NS(=O)(=O)c1c(F)c(F)c(F)c(F)c1F | 8800 h⁻¹ | 4900 h⁻¹ | solubility [13]: 66 mM (≈ 28 mg/mL); Delta IOP (Oryctolagus cuniculus [21]): 16.9 mmHg; Delta IOP (Oryctolagus cuniculus [22]): 7.1 mmHg; Delta IOP (Oryctolagus cuniculus [23]): 14.2 mmHg; logD [14]: 2.347; Delta IOP (Oryctolagus cuniculus [7]): 4.7 mmHg; Delta IOP (Oryctolagus cuniculus [8]): 11.3 mmHg; Delta IOP (Oryctolagus cuniculus [9]): 9.1 mmHg; Drug concentration (Oryctolagus cuniculus [15]): 296 µM; Drug concentration (Oryctolagus cuniculus [16]): 39 µM; Drug concentration (Oryctolagus cuniculus [17]): 38 µM; Drug concentration (Oryctolagus cuniculus [18]): 7.1 µM; Drug concentration (Oryctolagus cuniculus [19]): 150 µM; Drug concentration (Oryctolagus cuniculus [20]): 36 µM
8 | 0.8 µM | 0.021 µM | NS(=O)(=O)c1nnc(NS(=O)(=O)c2ccc(NS(=O)(=O)C(F)(F)C(F)(F)C(F)(F)C(F)(F)C(F)(F)C(F)(F)C(F)(F)C(F)(F)F)cc2)s1 | 7.5 h⁻¹ | 4.1 h⁻¹ | logD [6]: 1.689
9 | – | 0.6 µM | NS(=O)(=O)c1ccc(NC(=O)c2c(F)c(F)c(F)c(F)c2F)cc1 | – | – | Ki (Carbonic anhydrase 1 [24]): 0.95 µM
10 | – | – | CC(=O)/N=c1/sc(S(N)(=O)=O)nn1C [METHAZOLAMIDE] | 13000 h⁻¹ | 1900 h⁻¹ | logD [14]: 0.06
11 | 0.9 µM | 0.31 µM | NS(=O)(=O)c1ccc(CCNC(=O)c2c(F)c(F)c(F)c(F)c2F)cc1 | – | – | –
12 | 15.2 µM | 0.48 µM | NS(=O)(=O)c1ccc(NS(=O)(=O)C(F)(F)C(F)(F)C(F)(F)C(F)(F)F)cc1 | – | – | –
13 | 1.1 µM | 0.5 µM | NS(=O)(=O)c1cccc(NS(=O)(=O)c2c(F)c(F)c(F)c(F)c2F)c1 | – | – | –
14 | 8 µM | 0.055 µM | NS(=O)(=O)c1cccc(NS(=O)(=O)c2ccc(NC(=O)c3c(F)c(F)c(F)c(F)c3F)cc2)c1 | – | – | –
15 | 13 µM | 0.255 µM | NS(=O)(=O)c1ccc(CNS(=O)(=O)C(F)(F)C(F)(F)C(F)(F)C(F)(F)F)cc1 | – | – | –
16 | 59.8 µM | 0.6 µM | NS(=O)(=O)c1nnc(NS(=O)(=O)C(F)(F)F)s1 | – | – | –
17 | 1.07 µM | 0.2 µM | NS(=O)(=O)c1ccc(NS(=O)(=O)C(F)(F)C(F)(F)C(F)(F)C(F)(F)F)c(F)c1 | – | – | –

Row | SMILES | Ki (Carbonic anhydrase 1 [1]) | Ki (Carbonic anhydrase 4) | Kin (Oryctolagus cuniculus [10]) | Kin (Oryctolagus cuniculus [11]) | also measured
18 | Cn1nc(S(N)(=O)=O)sc1=NS(=O)(=O)C(F)(F)F | 2 µM | 0.032 µM | 4800 h⁻¹ | 3100 h⁻¹ | logD [6]: 1.012; Delta IOP (Oryctolagus cuniculus [7]): 3.2 mmHg; Delta IOP (Oryctolagus cuniculus [8]): 7.3 mmHg; Delta IOP (Oryctolagus cuniculus [9]): 4.9 mmHg; solubility (physchem): 69 mM (≈ 22.5 mg/mL)
19 | NS(=O)(=O)c1nnc(NS(=O)(=O)C(F)(F)C(F)(F)C(F)(F)C(F)(F)F)s1 | 0.36 µM | 0.009 µM | 7000 h⁻¹ | 4300 h⁻¹ | logD [6]: 1.525; Delta IOP (Oryctolagus cuniculus [2]): 2.8 mmHg; Delta IOP (Oryctolagus cuniculus [3]): 8.5 mmHg; Delta IOP (Oryctolagus cuniculus [4]): 5.6 mmHg; solubility (physchem): 50 mM (≈ 23.1 mg/mL)
20 | NS(=O)(=O)c1nnc(NC(=O)c2c(F)c(F)c(F)c(F)c2F)s1 | 0.25 µM | 0.01 µM | 10100 h⁻¹ | 4800 h⁻¹ | logD [6]: 2.245; Delta IOP (Oryctolagus cuniculus [2]): 2.2 mmHg; Delta IOP (Oryctolagus cuniculus [3]): 7.3 mmHg; Delta IOP (Oryctolagus cuniculus [4]): 6.5 mmHg; solubility (physchem): 43 mM (≈ 16.1 mg/mL)
21 | NS(=O)(=O)c1nc2ccc(NS(=O)(=O)c3c(F)c(F)c(F)c(F)c3F)cc2s1 | 0.041 µM | 0.005 µM | – | – | Delta IOP (Oryctolagus cuniculus [2]): 3 mmHg; Delta IOP (Oryctolagus cuniculus [3]): 8 mmHg; Delta IOP (Oryctolagus cuniculus [4]): 6.6 mmHg
